Data: patent publication US20030232102A1, “Total glycosides of paeony, method to prepare the same and uses thereof” (priority 2001, published 2003)

Test system: patients with rheumatoid arthritis
Assay: Phase II clinical study in rheumatoid arthritis: effectiveness (symptoms, physical examination, comprehensive evaluation)
Format: in vivo, human
Parameters: ESR Reduced to norm., % of cases / CRP Reduced to Norm., % of cases / RF Reduced to norm., % of cases: concentration or dose not given beside the values
Experimental: It was a multiple-centered, randomized, parallel, positive controlled Phrase II clinical study.
All clinical studies except the above mentioned 120 cases were conducted in a single-blind condition.
1) Age 18˜65, male or female who agreed to the investigational treatment for 12 weeks to 6 months. History of rheumatoid arthritis was within 3 years.
2) Documented Rheumatoid Arthritis based on a diagnostic criteria of 1987 Revised ARA Criteria for the Classification of Rheumatoid Arthritis
3) Diagnosis of a typical active stage of RA: A patient is said to be on an active stage of RA if he or she has satisfied at least 4 of the following 5 items.
2) Patient who quitted the treatment for the ineffectiveness 7 days after the start of administration was included in the efficacy analysis. Patient who quitted the treatment for the side effects was not included in the efficacy analysis but the safety analyses.
1) The placebo run-in period: Seven days before administration, the selected patients stopped using NSAIDs and took a placebo instead.
4) For the double-blinded study, patients in both groups would be given capsules and tablets in same shapes, odors and amount. Placebo of capsule or tablet were included. Neither doctors nor patients can tell the group of treatment from the other.
5) No analgesics, anti-inflammation drugs, immune regulatory agents or muscle relaxants were allowed during the period of study. Acetaminophen could be used when necessary. If a physical therapy was started before enrollment, it was allowed to be continued, yet, it should be taken all the way during the period of clinical study.
1) Pain at rest: patients were asked to scale the degree of pain with a ruler [drawing 1]
2) Morning stiffness: Patients were requested to make notes on duration of their morning joint stiffness, a time span from its appearance to recovery in minutes every morning. The doctors should evaluate their record sheets by questioning them. For example “Do you fell stiff in any of your joints? (today, these 2 days)” When get a “yes” in answer, then “when did you get up today?” and “when does the stiffness be gone?”
3) Swelling of joints: Take count of the index of joint swelling by summing up the degree number of each joint.
0=normal; 1=swelling soft tissues (synovium) without hydrarthrus; 2=swelling soft tissues (synovium) with hydrarthrus.
4) Tenderness of joints: Take count of the index of joint tenderness by summing up the degree number of each joint:
5) Grip strength: Fold the arm belt of a sphygmomanometer twice and seal it in a small cloth bag suitable for a hand to hold. Aerates the belt in pressure of 20 mm Hg. Patients were asked to grip the bag with their not braced left and right hand, the grip strength is the average pressures in mm Hg for three times.
6) Time consumed for a 15 meters' walk (Seconds): Time started from a calm standing to the final of 15 meters. The average of three times.
7) General joint function (criteria of ARA):
8) Self-scoring and physician's grading on disease conditions: Both patients and doctors were required to submit their score sheet every time on follow-up survey. The scoring was made upon following criteria:
9) Patient's general condition: condition on the physical strength, sleep and appetite.
No effect: less than 30% improvement in symptoms and physical signs.
Improved: About 50% improvement in symptoms and physical signs (including general conditions in physical strength, sleep and appetite).

CN(Cc1cnc2nc(N)nc(N)c2n1)c1ccc(C(=O)N[C@@H](CCC(=O)O)C(=O)O)cc1 [MTX, Methotrexate]
MR Disappeared, cases (double blinded, 12 weeks): 15 | NSJ 50% reduced, % of cases (double blinded, 12 weeks): 56.7% | NSJ 50% reduced, cases (double blinded, 12 weeks): 34 | NSJ Disappeared, % of cases (double blinded, 12 weeks): 26.7% | NSJ Disappeared, cases (double blinded, 12 weeks): 16 | RF 2 dilutions lower, % of cases (double blinded, 12 weeks): 36.7% | RF 2 dilutions lower, cases (double blinded, 12 weeks): 22 | RF Reduced to norm., cases (double blinded, 12 weeks): 0 | AGS 50% increased, % of cases (overall group, 4 weeks): 7.5% | AGS 50% increased, cases (overall group, 4 weeks): 19 | CRP 50% reduced, % of cases (overall group, 4 weeks): 13.4% | CRP 50% reduced, cases (overall group, 4 weeks): 19 | CRP Reduced to Norm., % of cases (overall group, 4 weeks): 4.9% | CRP Reduced to Norm., cases (overall group, 4 weeks): 7 | ESR 50% reduced, % of cases (overall group, 4 weeks): 41.6% | ESR 50% reduced, cases (overall group, 4 weeks): 59 | ESR Reduced to norm., % of cases (overall group, 4 weeks): 15.5% | ESR Reduced to norm., cases (overall group, 4 weeks): 22 | ITJ 50% reduced, % of cases (overall group, 4 weeks): 19.0% | ITJ 50% reduced, cases (overall group, 4 weeks): 27 | ITJ Disappeared, % of cases (overall group, 4 weeks): 2.8% | ITJ Disappeared, cases (overall group, 4 weeks): 4 | MR 50% reduced, % of cases (overall group, 4 weeks): 45.8% | MR 50% reduced, cases (overall group, 4 weeks): 65 | MR Disappeared, % of cases (overall group, 4 weeks): 9.8% | MR Disappeared, cases (overall group, 4 weeks): 14 | NSJ 50% reduced, % of cases (overall group, 4 weeks): 48.6% | NSJ 50% reduced, cases (overall group, 4 weeks): 69 | NSJ Disappeared, % of cases (overall group, 4 weeks): 10.6% | NSJ Disappeared, cases (overall group, 4 weeks): 15 | RF 2 dilutions lower, % of cases (overall group, 4 weeks): 49.3% | RF 2 dilutions lower, cases (overall group, 4 weeks): 70 | RF Reduced to norm., % of cases (overall group, 4 weeks): 4.9% | RF Reduced to norm., cases (overall group, 4 weeks): 7 | AGS 50% increased, % of cases (overall group, 8 weeks): 16.7% | AGS 50% increased, cases (overall group, 8 weeks): 23 | CRP 50% reduced, % of cases (overall group, 8 weeks): 17.6% | CRP 50% reduced, cases (overall group, 8 weeks): 25 | CRP Reduced to Norm., % of cases (overall group, 8 weeks): 12.7% | CRP Reduced to Norm., cases (overall group, 8 weeks): 18 | ESR 50% reduced, cases (overall group, 8 weeks): 80 | ESR Reduced to norm., % of cases (overall group, 8 weeks): 18.3% | ESR Reduced to norm., cases (overall group, 8 weeks): 26 | ITJ 50% reduced, % of cases (overall group, 8 weeks): 34.5% | ITJ 50% reduced, cases (overall group, 8 weeks): 49 | ITJ Disappeared, % of cases (overall group, 8 weeks): 3.5% | ITJ Disappeared, cases (overall group, 8 weeks): 5 | MR 50% reduced, % of cases (overall group, 8 weeks): 52.1% | MR 50% reduced, cases (overall group, 8 weeks): 74 | MR Disappeared, % of cases (overall group, 8 weeks): 19.7% | MR Disappeared, cases (overall group, 8 weeks): 28 | NSJ 50% reduced, % of cases (overall group, 8 weeks): 51.4% | NSJ 50% reduced, cases (overall group, 8 weeks): 73 | NSJ Disappeared, % of cases (overall group, 8 weeks): 16.9% | NSJ Disappeared, cases (overall group, 8 weeks): 24 | RF 2 dilutions lower, % of cases (overall group, 8 weeks): 59.9% | RF 2 dilutions lower, cases (overall group, 8 weeks): 85 | RF Reduced to norm., % of cases (overall group, 8 weeks): 9.2% | RF Reduced to norm., cases (overall group, 8 weeks): 13 | AGS 50% increased, % of cases (overall group, 12 weeks): 29.5% | AGS 50% increased, cases (overall group, 12 weeks): 42 | CRP 50% reduced, % of cases (overall group, 12 weeks): 23.2% | CRP 50% reduced, cases (overall group, 12 weeks): 33 | CRP Reduced to Norm., % of cases (overall group, 12 weeks): 17.6% | CRP Reduced to Norm., cases (overall group, 12 weeks): 25 | ESR 50% reduced, cases (overall group, 12 weeks): 76 | ESR Reduced to norm., % of cases (overall group, 12 weeks): 21.8% | ESR Reduced to norm., cases (overall group, 12 weeks): 31 | ITJ 50% reduced, % of cases (overall group, 12 weeks): 50.7% | ITJ 50% reduced, cases (overall group, 12 weeks): 72 | ITJ Disappeared, % of cases (overall group, 12 weeks): 6.3% | ITJ Disappeared, cases (overall group, 12 weeks): 9 | MR 50% reduced, % of cases (overall group, 12 weeks): 67.6% | MR 50% reduced, cases (overall group, 12 weeks): 96 | MR Disappeared, % of cases (overall group, 12 weeks): 11.3% | MR Disappeared, cases (overall group, 12 weeks): 34 | NSJ 50% reduced, % of cases (overall group, 12 weeks): 61.3% | NSJ 50% reduced, cases (overall group, 12 weeks): 87 | NSJ Disappeared, % of cases (overall group, 12 weeks): 19.0% | NSJ Disappeared, cases (overall group, 12 weeks): 27 | RF 2 dilutions lower, % of cases (overall group, 12 weeks): 59.9% | RF 2 dilutions lower, cases (overall group, 12 weeks): 85 | RF Reduced to norm., % of cases (overall group, 12 weeks): 11.3% | RF Reduced to norm., cases (overall group, 12 weeks): 16 | AGS 50% increased, % of cases (overall group, 24 weeks): 16.7% | AGS 50% increased, cases (overall group, 24 weeks): 10 | CRP 50% reduced, % of cases (overall group, 24 weeks): 18.3% | CRP 50% reduced, cases (overall group, 24 weeks): 11 | CRP Reduced to Norm., % of cases (overall group, 24 weeks): 40.0% | CRP Reduced to Norm., cases (overall group, 24 weeks): 24 | ESR 50% reduced, % of cases (overall group, 24 weeks): 23.3% | ESR 50% reduced, cases (overall group, 24 weeks): 14 | ESR Reduced to norm., % of cases (overall group, 24 weeks): 43.3% | ESR Reduced to norm., cases (overall group, 24 weeks): 26 | ITJ 50% reduced, % of cases (overall group, 24 weeks): 58.3% | ITJ 50% reduced, cases (overall group, 24 weeks): 35 | ITJ Disappeared, % of cases (overall group, 24 weeks): 10.0% | ITJ Disappeared, cases (overall group, 24 weeks): 6 | MR 50% reduced, % of cases (overall group, 24 weeks): 50.0% | MR 50% reduced, cases (overall group, 24 weeks): 30 | MR Disappeared, % of cases (overall group, 24 weeks): 31.7% | MR Disappeared, cases (overall group, 24 weeks): 19 | NSJ 50% reduced, % of cases (overall group, 24 weeks): 46.7% | NSJ 50% reduced, cases (overall group, 24 weeks): 28 | NSJ Disappeared, % of cases (overall group, 24 weeks): 26.7% | NSJ Disappeared, cases (overall group, 24 weeks): 16 | RF 2 dilutions lower, % of cases (overall group, 24 weeks): 38.3% | RF 2 dilutions lower, cases (overall group, 24 weeks): 23 | RF Reduced to norm., % of cases (overall group, 24 weeks): 10.0% | RF Reduced to norm., cases (overall group, 24 weeks): 6 | Changes in RA perimeters: GS-L (overall groups, 4 weeks, mean): 12.56 | Changes in RA perimeters: GS-R (overall groups, 4 weeks, mean): 11.60 | Changes in RA perimeters: ISJ (overall groups, 4 weeks, mean): 3.73 | Changes in RA perimeters: ITJ (overall groups, 4 weeks, mean): 6.04 | Changes in RA perimeters: MR (overall groups, 4 weeks, mean): 35.76 | Changes in RA perimeters: NSJ (overall groups, 4 weeks, mean): 2.10 | Changes in RA perimeters: NTJ (overall groups, 4 weeks, mean): 2.61 | Changes in RA perimeters: PR (overall groups, 4 weeks, mean): 1.05 | Changes in RA perimeters: GS-L (overall groups, 8 weeks, mean): 16.66 | Changes in RA perimeters: GS-R (overall groups, 8 weeks, mean): 19.36 | Changes in RA perimeters: ITJ (overall groups, 8 weeks, mean): 12.66 | Changes in RA perimeters: MR (overall groups, 8 weeks, mean): 54.20 | Changes in RA perimeters: NSJ (overall groups, 8 weeks, mean): 4.43 | Changes in RA perimeters: NTJ (overall groups, 8 weeks, mean): 5.38 | Changes in RA perimeters: PR (overall groups, 8 weeks, mean): 1.94 | Changes in RA perimeters: TSJ (overall groups, 8 weeks, mean): 6.59 | Changes in RA perimeters: GS-L (overall groups, 12 weeks, mean): 23.06 | Changes in RA perimeters: GS-R (overall groups, 12 weeks, mean): 28.10 | Changes in RA perimeters: ISJ (overall groups, 12 weeks, mean): 10.25 | Changes in RA perimeters: ITJ (overall groups, 12 weeks, mean): 18.77 | Changes in RA perimeters: MR (overall groups, 12 weeks, mean): 78.52 | Changes in RA perimeters: NSJ (overall groups, 12 weeks, mean): 6.77 | Changes in RA perimeters: NTJ (overall groups, 12 weeks, mean): 8.78 | Changes in RA perimeters: GS-L (overall groups, 24 weeks, mean): 31.83 | Changes in RA perimeters: GS-R (overall groups, 24 weeks, mean): 30.90 | Changes in RA perimeters: ISJ (overall groups, 24 weeks, mean): 6.88 | Changes in RA perimeters: ITJ (overall groups, 24 weeks, mean): 13.94 | Changes in RA perimeters: MR (overall groups, 24 weeks, mean): 60.70 | Changes in RA perimeters: NSJ (overall groups, 24 weeks, mean): 5.39 | Changes in RA perimeters: NTJ (overall groups, 24 weeks, mean): 9.05 | Changes in RA perimeters: PR (overall groups, 24 weeks, mean): 2.62
